The values below come from US20240182785A1, “COMPOUND, COMPOSITION, CURED PRODUCT, OPTICALLY ANISOTROPIC BODY, OPTICAL ELEMENT, AND LIGHT GUIDE ELEMENT” (FUJIFILM Corporation, priority 2021, published 2024).

Type in all cases: physicochemical
Data set [1] is described as follows: Evaluation of durability of optically anisotropic layer (moisture-heat resistance test). Particulars: rate of change in Re of cured layer (25 parts compound, 75 parts L-1), 136 hours at 100° C., humidity 95%. How it is done:
(§1) As shown below, the light resistance and the durability of the optically anisotropic layer produced using the composition containing each of the compounds A-1 to A-11 and the compounds B-1 and B-2 were evaluated.
(§2) A coating liquid having the following composition was prepared and applied by spin-coating, onto a rubbing-treated glass attached with an alignment film. Each composition was irradiated with ultraviolet rays of 300 mJ/cm^2 through a filter that cuts light having a wavelength of 350 nm or less on a hot plate which had been heated to a temperature at which a nematic phase is shown, whereby an optically anisotropic layer for a light resistance/durability test was produced.
(§3) The polymerizable liquid crystal compound L-1 is a mixture obtained by mixing at a
(§4) ratio of the following L-1-1/L-1-2/L-1-3=84/14/2 (in terms of mass ratio).
(§5) Rate of change in Re (%)=[100×{|(Re after test)−(Re before test)|}/(Re before test)]
(§6) Re was measured with Axoscan manufactured by Axometrics Inc. at a wavelength of 550 nm, and the measurement temperature was set to room temperature.
The produced optically anisotropic layer was allowed to be left for 136 hours at 100° C. and a humidity of 95%, whereby a moisture-heat resistance test was carried out. The rate of change in Re before and after the durability test was evaluated, the durability in a case where the rate of change in Re was less than 10% was evaluated as A, and the durability in a case where the rate of change in Re was 10% or more was evaluated as B. The smaller the rate of change in Re, the more excellent the durability.

The nature of data set [2]: Evaluation of solubility in cyclopentanone. Particulars: precipitation concentration in cyclopentanone at 25° C. How it is done: The solubility of each of the compounds (the compounds A-1 to A-11 and the compounds B-1 and B-2) in cyclopentanone was evaluated.
A short description of data set [3]: Measurement of Δn (refractive index anisotropy), wedge-shaped liquid crystal cell. Particulars: 550 nm, 30° C. or lower limit temperature of nematic phase +0 to 10° C.; some compounds extrapolated from 1/2 mixture with L-1-1. How it is done:
The Δn of each of the compounds (the compounds A-1 to A-11 and the compounds B-1 and B-2), which are the compounds to be measured, was measured by a method using a wedge-shaped liquid crystal cell described on page 202 in the Liquid crystal handbook (edited by the liquid crystal handbook editorial board, published by Maruzen Co., Ltd., 2000). Δn was defined as a measured value at a wavelength of 550 nm at 30° C. or the lower limit temperature of the nematic phase +0° C. to 10° C. In a case of a compound which is liable to crystallize or a compound having no liquid crystallinity, evaluation was carried out using a mixture thereof with the other liquid crystal compound, and Δn was estimated from the extrapolated value of the measured value thereof. The following L-1-1 was used as the other liquid crystal compound. As the above mixture, a mixture obtained by mixing at a ratio of the compound to be measured/the L-1-1=1/2 (in terms of mass ratio) was used.
A case where Δn was 0.40 or more was evaluated as A, a case where Δn was 0.35 or more and less than 0.40 was evaluated as B, a case where Δn was 0.30 or more and less than 0.35 was evaluated as C, and a case where Δn was less than 0.30 was evaluated as D. The results are shown in Table 1.

The nature of data set [4]: Evaluation of light resistance of optically anisotropic layer (Super Xenon Weather Meter). Particulars: rate of change in Re of cured layer (25 parts compound, 75 parts L-1), 5 million lx, 50 hours, 63° C., 50% RH, oxygen-blocking. How it is done: as §1, §2, §3, §4
The produced optically anisotropic layers for light resistance/durability tests were irradiated with light using a Super Xenon Weather Meter SX75 manufactured by Suga Test Instruments Co., Ltd. Using KU-1000100 manufactured by King Seisakusho Co., Ltd. as a UV cut filter, a light resistance test was carried out by irradiation with 5 million lx of light for 50 hours under an oxygen-blocking condition. The temperature of the specimen to be tested (the temperature inside the test device) was set to 63° C. The relative humidity in the test device was 50% RH.
The Re of the optically anisotropic layer before and after the light resistance test was measured, the light resistance in a case where the rate of change in Re described below was less than 10% was evaluated as A, and the light resistance in a case where the rate of change in Re was 10% or more was evaluated as B. The smaller the rate of change in Re, the more excellent the light resistance.
as §5, §6

Data set [5] can be described thus: Evaluation of liquid crystallinity (hot stage, polarization microscope). On the set-up: key: A case of having liquid crystallinity was evaluated as A; a case of having no liquid crystallinity was evaluated as B. Conditions: heated on a hot stage. How it is done: The respective compounds (the compounds A-1 to A-11 and the compounds B-1 and B-2) were heated on a hot stage and observed with a polarization microscope, and the phase transition temperature was measured to evaluate the presence or absence of the liquid crystallinity. A case of having liquid crystallinity was evaluated as A, and a case of having no liquid crystallinity was evaluated as B. The results are shown in Table 1.
Since the compound A-8 has melting points of 200° C. or higher and undergoes a polymerization reaction during heating, liquid crystallinity could not be evaluated.

On to `C=CC(=O)OCCc1ccc(C#Cc2ccc(-c3ccc(COc4ccc(C#Cc5ccc(CCOC(=O)C=C)cc5)cc4C(=O)OC)cc3)cc2)cc1` [Compound A-1], for which the Durability result in data set [1] was “A (the durability in a case where the rate of change in Re was less than 10% was evaluated as A)”. In addition, the Solubility result in data set [2] is given as “A (the solubility in a case where the precipitation concentration was 5% by mass or more was evaluated as A)”. Besides, in data set [3], the Δn result is “B (a case where Δn was 0.35 or more and less than 0.40 was evaluated as B)”. Further, in data set [4], the Light resistance result was “A (the light resistance in a case where the rate of change in Re described below was less than 10% was evaluated as A)”. Besides, the Liquid crystallinity entry in data set [5] is “A”.

As for `C=CC(=O)OCCSc1ccc(C#Cc2ccc(OCc3ccc4cc(C#Cc5ccc(SCCOC(=O)C=C)cc5)ccc4c3)c(C(=O)OC)c2)cc1` [Compound A-2], the Durability result in data set [1] is recorded as “A (the durability in a case where the rate of change in Re was less than 10% was evaluated as A)”. For the same compound, the Solubility entry in data set [2] is given as “A (the solubility in a case where the precipitation concentration was 5% by mass or more was evaluated as A)”. In addition, in data set [3], the Δn entry is “A (A case where Δn was 0.40 or more was evaluated as A)”. The Light resistance result in data set [4] is “A (the light resistance in a case where the rate of change in Re described below was less than 10% was evaluated as A)”. Moreover, the Liquid crystallinity entry in data set [5] is listed as “A”.

With `C=CC(=O)OCCSc1ccc(C#Cc2ccc(OCc3ccc4cc(C#Cc5ccc(SCCOC(=O)C=C)cc5)ccc4c3)c(C(=O)OCC)c2)cc1` [Compound A-3], in data set [1], the Durability entry is reported as “A (the durability in a case where the rate of change in Re was less than 10% was evaluated as A)”. Besides, in data set [2], the Solubility result is “A (the solubility in a case where the precipitation concentration was 5% by mass or more was evaluated as A)”. Further, the Δn entry in data set [3] is “A (A case where Δn was 0.40 or more was evaluated as A)”. In addition, the Light resistance result in data set [4] is “A (the light resistance in a case where the rate of change in Re described below was less than 10% was evaluated as A)”. Further, in data set [5], the Liquid crystallinity entry is given as “A”.

Take `C=CC(=O)OCCSc1ccc(C#Cc2cc(C)c(OCc3ccc4cc(C#Cc5ccc(SCCOC(=O)C=C)cc5)ccc4c3)c(C)c2)cc1` [Compound A-4]: in data set [1], the Durability result was “A (the durability in a case where the rate of change in Re was less than 10% was evaluated as A)”. Besides, the Solubility entry in data set [2] was “A (the solubility in a case where the precipitation concentration was 5% by mass or more was evaluated as A)”. Further, the Δn result in data set [3] is recorded as “A (A case where Δn was 0.40 or more was evaluated as A)”. Besides, the Light resistance result in data set [4] is listed as “A (the light resistance in a case where the rate of change in Re described below was less than 10% was evaluated as A)”. Further, in data set [5], the Liquid crystallinity result was “A”.

As for `C=CC(=O)OCCSc1ccc(C#Cc2ccc(-c3ccc(COc4ccc(C#Cc5ccc(SCCOC(=O)C=C)cc5)cc4C(=O)OC)cc3)cc2)cc1` [Compound A-6], in data set [1], the Durability entry is given as “A (the durability in a case where the rate of change in Re was less than 10% was evaluated as A)”. Besides, the Solubility result in data set [2] is “A (the solubility in a case where the precipitation concentration was 5% by mass or more was evaluated as A)”. Moreover, the Δn result in data set [3] is given as “A (A case where Δn was 0.40 or more was evaluated as A)”. Besides, in data set [4], the Light resistance entry is “A (the light resistance in a case where the rate of change in Re described below was less than 10% was evaluated as A)”. Also, in data set [5], the Liquid crystallinity result is recorded as “A”.

Turning to `COC(=O)c1cc(C#Cc2ccc(CCOC(C)=O)cc2)ccc1OCc1ccc(-c2ccc(C#Cc3ccc(CCOC(C)=O)cc3)cc2)cc1` [Compound A-7], the Durability entry in data set [1] is on record as “B (the durability in a case where the rate of change in Re was 10% or more was evaluated as B)”. For the same compound, in data set [2], the Solubility entry is recorded as “A (the solubility in a case where the precipitation concentration was 5% by mass or more was evaluated as A)”. Further, the Δn result in data set [3] is “B (a case where Δn was 0.35 or more and less than 0.40 was evaluated as B)”. Further, in data set [4], the Light resistance result is on record as “A (the light resistance in a case where the rate of change in Re described below was less than 10% was evaluated as A)”. Also, in data set [5], the Liquid crystallinity entry is listed as “A”.

On to `C=CC(=O)OCCSc1ccc(C#Cc2ccc(OCc3ccc4cc(C#Cc5ccc(SCCOC(=O)C=C)cc5)ccc4c3)cc2)cc1` [Compound A-8], for which the Durability entry in data set [1] was “A (the durability in a case where the rate of change in Re was less than 10% was evaluated as A)”. Also, the Solubility entry in data set [2] is recorded as “B (the solubility in a case where the precipitation concentration was less than 5% by mass was evaluated as B)”. Moreover, the Δn entry in data set [3] is listed as “A (A case where Δn was 0.40 or more was evaluated as A)”. The Light resistance entry in data set [4] is “A (the light resistance in a case where the rate of change in Re described below was less than 10% was evaluated as A)”.

On to `C=CC(=O)OCCCCSc1nc2ccc(C#Cc3ccc(OCc4ccc5cc(C#Cc6ccc7nc(SCCCCOC(=O)C=C)sc7c6)ccc5c4)c(C(=O)OC)c3)cc2s1` [Compound A-9], for which the Durability entry in data set [1] is “A (the durability in a case where the rate of change in Re was less than 10% was evaluated as A)”. Also, the Solubility entry in data set [2] is reported as “B (the solubility in a case where the precipitation concentration was less than 5% by mass was evaluated as B)”. Further, the Δn result in data set [3] is “A (A case where Δn was 0.40 or more was evaluated as A)”. In addition, the Light resistance entry in data set [4] is recorded as “B (the light resistance in a case where the rate of change in Re was 10% or more was evaluated as B)”. Moreover, the Liquid crystallinity entry in data set [5] is listed as “A”.

For `C=CC(=O)OCCSc1ccc(C#Cc2ccc(OC(=O)c3ccc4cc(C#Cc5ccc(SCCOC(=O)C=C)cc5)ccc4c3)c(C(=O)OC)c2)cc1` [Compound A-10], the Durability result in data set [1] is given as “A (the durability in a case where the rate of change in Re was less than 10% was evaluated as A)”. For the same compound, in data set [2], the Solubility entry is “A (the solubility in a case where the precipitation concentration was 5% by mass or more was evaluated as A)”. In data set [3], the Δn entry is “A (A case where Δn was 0.40 or more was evaluated as A)”. Moreover, the Light resistance result in data set [4] was “B (the light resistance in a case where the rate of change in Re was 10% or more was evaluated as B)”. The Liquid crystallinity result in data set [5] is “A”.

Consider `C=CC(=O)OCCc1ccc(C#Cc2ccc(OCc3ccc4cc(C#Cc5ccc(CCOC(=O)C=C)cc5)ccc4c3)c(C(=O)OC)c2)cc1` [Compound A-11], for which the Durability result in data set [1] is “A (the durability in a case where the rate of change in Re was less than 10% was evaluated as A)”. Besides, the Solubility entry in data set [2] is recorded as “A (the solubility in a case where the precipitation concentration was 5% by mass or more was evaluated as A)”. Moreover, the Δn entry in data set [3] is “B (a case where Δn was 0.35 or more and less than 0.40 was evaluated as B)”. Besides, the Light resistance entry in data set [4] is “A (the light resistance in a case where the rate of change in Re described below was less than 10% was evaluated as A)”. Also, the Liquid crystallinity entry in data set [5] is on record as “A”.
